The values below come from patent US20250230138A1, “COMPOUNDS HAVING A T-STRUCTURE FORMED BY AT LEAST FOUR CYCLES FOR USE IN THE TREATMENT OF CANCER AND OTHER INDICATIONS” (TheRas, Inc., priority 2022, published 2025).

For assay [1], the target named is Cys242 in human PIK3CA (157-299) (Homo sapiens (Human), UniProt P42336). Nature of the assay: Covalent modification assay using MALDI-TOF MS. The note with it: 4 h reaction time point. The class given is biochemical. In short, it runs like this: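 Covalent adduct formation was read by linear-mode MALDI-TOF with sinapinic acid matrix, reported as modified-protein peak height divided by total protein peak heights. Reactions held PIK3CA (157-299) at 1 or 3.33 μM in HEPES/NaCl/MgCl2 buffer, pH 7.3, sampled after 15 min to 4 h at room temperature.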

The next assay relates to pAKT in BT474 cells. Kind of assay: Cell-based pAKT HTRF assay in BT474 cells. Conditions: BT474 cells, 4 hr incubation, read-out: pAKT inhibition IC50 in BT474 cells. In a few lines:
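pAKT was measured by HTRF after a 4 hr compound exposure in BT474 cells (DMEM, 10% FBS, 0.25% DMSO), using 9 concentrations from 3 μM in 3-fold steps. Cell lysates were incubated with the Eu cryptate/d2 antibody pair at room temperature for 4 to 24 h. The plate was then read at 320 nm excitation and 615 nm emission.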

[2] abbreviates: 3.33 μM protein target, 1:7.5 protein to compound ratio (compounds 1-852).
The mark [3] stands for this setting: 1 μM protein target, 1:5 protein to compound ratio (compounds 853-1279).
[4] abbreviates: Homo sapiens, BT-474, Compounds 10-999.

Each structure is given as a SMILES string. Where two headings read alike, the source gives them in different places.

Sequence of Cys242 in human PIK3CA (157-299) (P42336 157-299): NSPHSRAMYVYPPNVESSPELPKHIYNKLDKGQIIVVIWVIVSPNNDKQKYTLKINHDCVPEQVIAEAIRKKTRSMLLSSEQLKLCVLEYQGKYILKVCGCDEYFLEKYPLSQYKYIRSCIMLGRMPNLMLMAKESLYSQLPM

Usually IC50 stands for the concentration at which inhibition is half-maximal. `C=CC(=O)N1Cc2cc(-c3nc(-c4cnc5c(c4)CN(C)C5=O)c4ccsc4c3-c3c(F)cc(F)cc3OCCOC)nn2C[C@H]1C` [Compound 504]: the “% of modification” value in assay [1] (setting [2]) was “A (percent of modification of PIK3CA protein ≥75%)”. Moreover, the IC50 in the assay on pAKT in BT474 cells (Compounds 10-999) was less than 0.1 µM.

In the case of `C=CC(=O)N1CCn2nc(-c3nc(-c4ccc5c(c4)CN(C)CC5)c4ccsc4c3-c3c(F)cc(F)cc3OCCO)cc2[C@H]1C` [Compound 1136], the “% of modification” value in assay [1] (setting [3]) is on record as “A (percent of modification of PIK3CA protein ≥75%)”. Further, in the assay on pAKT in BT474 cells (Compounds 1000-1279), the IC50 was less than 0.1 µM.

`C=CC(=O)N1CCn2nc(-c3nc(-c4ccc5c(c4)C(=O)NC5)c4ccsc4c3-c3c(F)cc(F)cc3OC)cc2C1C` (centres unmarked) [Compound 1117]: the “% of modification” value in assay [1] (setting [3]) is “A (percent of modification of PIK3CA protein ≥75%)”. For the same molecule, the IC50 in the assay on pAKT in BT474 cells (Compounds 1000-1279) was less than 0.1 µM.

Turning to `C=CC(=O)N1CCC(n2cc(-c3nc(-c4ccc5c(c4)CNC(=O)C5)c4ccsc4c3-c3ccc(F)cc3)cn2)CC1` [Compound 69], the “% of modification” value in assay [1] (setting [2]) is “A (percent of modification of PIK3CA protein ≥75%)”. Besides, the IC50 with pAKT in BT474 cells (Compounds 10-999) fell in the range of 1 to 3 µM.

For the molecule `C=CC(=O)N1CCn2nc(-c3nc(-c4ccc5c(cnn5C)c4)c4ccsc4c3-c3c(F)cc(F)cc3OC)cc2C1C` (centres unmarked) [Compound 1111], the “% of modification” value in assay [1] (setting [3]) is on record as “C (25%≤percent of modification <50%)”. Besides, in the assay on pAKT in BT474 cells (Compounds 1000-1279), the IC50 lay in the range of 0.1 to 1 µM.

Take `C=CC(=O)N1CCc2nc(-c3nc(-c4cnn(CC(C)(C)N)c4)c4ccsc4c3-c3c(F)cc(F)cc3OC(C)C)sc2C1` [Compound 401]: the “% of modification” value in assay [1] (setting [2]) is “A (percent of modification of PIK3CA protein ≥75%)”. Further, the IC50 in the assay on pAKT in BT474 cells (Compounds 10-999) was 0.1 to 1 µM.

In the case of `C=CC(=O)N1Cc2cc(-c3nc(-c4cnccn4)c4ccsc4c3-c3c(F)cc(F)cc3OCCOC)nn2C[C@H]1C` [Compound 840], the “% of modification” value in assay [1] (setting [2]) was “A (percent of modification of PIK3CA protein ≥75%)”. Besides, the IC50 with pAKT in BT474 cells (Compounds 10-999) is less than 0.1 µM.

`C=CC(=O)N1CCn2nc(-c3nc(-c4ccc5c(c4)C(=O)NCC5)c4ccsc4c3-c3c(F)cc(F)cc3OCCOC)cc2[C@H]1C` [Compound 956]: the “% of modification” value in assay [1] (setting [3]) was “A (percent of modification of PIK3CA protein ≥75%)”. Besides, the IC50 with pAKT in BT474 cells (Compounds 10-999) was less than 0.1 µM.

Consider `C=CC(=O)N1CCn2nc(-c3nc(-c4cncc(C#N)c4)c4ccsc4c3-c3c(F)cc(F)cc3OC[C@@H](C)O)cc2[C@@H]1C` [Compound 676], for which the “% of modification” value in assay [1] (setting [2]) is given as “A (percent of modification of PIK3CA protein ≥75%)”. For the same molecule, the IC50 in the assay with pAKT in BT474 cells (Compounds 10-999) is less than 0.1 µM.

As for `C=CC(=O)N1Cc2cc(-c3nc(-c4ccc5c(c4)CNC5=O)c4ccsc4c3-c3c(F)cc(F)cc3OCCO)nn2CC1C` (centres unmarked) [Compound 904], the “% of modification” value in assay [1] (setting [3]) is reported as “A (percent of modification of PIK3CA protein ≥75%)”. Further, in the assay with pAKT in BT474 cells (Compounds 10-999), the IC50 was less than 0.1 µM.

Consider `C=CC(=O)N1Cc2cc(-c3nc(-c4cnc5c(c4)CN(C)C5=O)c4ccsc4c3-c3c(F)cc(F)cc3OCCOC)nn2C[C@H]1C` [Compound 687], for which the “% of modification” value in assay [1] (setting [2]) is on record as “A (percent of modification of PIK3CA protein ≥75%)”. Further, the IC50 in the assay with pAKT in BT474 cells (Compounds 10-999) is less than 0.1 µM.

Take `C=CC(=O)N1CC(n2cc(-c3nc(-c4ncn(C)n4)c4ccsc4c3-c3ccc(F)cc3OCCOC)cn2)C1` [Compound 85]: in assay [1] (setting [2]), the “% of modification” value was “A (percent of modification of PIK3CA protein ≥75%)”. For the same molecule, the IC50 with pAKT in BT474 cells (Compounds 10-999) fell in the range of 0.1 to 1 µM.

`C=CC(=O)N1CCn2nc(-c3nc(-c4ccc(C(=O)NCC(F)F)cc4)c4ccsc4c3-c3c(F)cc(F)cc3OCCOC)cc2C1C` (centres unmarked) [Compound 1183]: the “% of modification” value in assay [1] (setting [3]) is “A (percent of modification of PIK3CA protein ≥75%)”. In addition, the IC50 in the assay on pAKT in BT474 cells (Compounds 1000-1279) is less than 0.1 µM.

Take `C=CC(=O)N1CCn2nc(-c3nc(-c4ccc5c(cnn5C)c4)c4ccsc4c3-c3c(F)cc(F)cc3OCCOC)cc2[C@H]1C` [Compound 758, 1-((R)-2-((S)-7-(2,4-difluoro-6-(2-methoxyethoxy)phenyl)-4-(1-methyl-1H-indazol-5-yl)thieno[3,2-c]pyridin-6-yl)-4-methyl-6,7-dihydropyrazolo[1,5-a]pyrazin-5(4H)-yl)prop-2-en-1-one]: the “% of modification” value in assay [1] (setting [2]) is given as “A (percent of modification of PIK3CA protein ≥75%)”. The concentration for half-maximal inhibition (IC50) in the assay on pAKT in BT474 cells (Compounds 10-999) is less than 0.1 µM.

On to `C=CC(=O)N1CCc2nc(-c3nc(-c4ccc(C(C)(C)O)cc4)c4ccsc4c3-c3c(F)cc(F)cc3OCCOC)sc2C1` [Compound 419], for which the “% of modification” value in assay [1] (setting [2]) is recorded as “A (percent of modification of PIK3CA protein ≥75%)”. The IC50 in the assay with pAKT in BT474 cells (Compounds 10-999) was 0.1 to 1 µM.

For the molecule `C=CC(=O)N1Cc2cc(-c3nc(-c4ccc5c(c4)CCN(C)C5)c4ccsc4c3-c3c(F)cc(F)cc3OC)nn2[C@@H](C)C1` [Compound 563], the “% of modification” value in assay [1] (setting [2]) is “A (percent of modification of PIK3CA protein ≥75%)”. Also, the IC50 in the assay with pAKT in BT474 cells (Compounds 10-999) was less than 0.1 µM.

As for `C=CC(=O)N1CCn2nc(-c3nc(-c4ccc5c(c4)CN(C)CC5(F)F)c4ccsc4c3-c3c(F)cc(F)cc3OC)cc2C1C` (centres unmarked) [Compound 1275], in assay [1] (setting [3]), the “% of modification” value is “A (percent of modification of PIK3CA protein ≥75%)”. Further, the IC50 in the assay with pAKT in BT474 cells (Compounds 1000-1279) is less than 0.1 µM.

`C=CC(=O)N1CCn2nc(-c3nc(-c4cnc5cnn(C)c5c4)c4ccsc4c3-c3c(F)cc(F)cc3OCCO)cc2C1C` (centres unmarked) [Compound 901]: the “% of modification” value in assay [1] (setting [3]) was “A (percent of modification of PIK3CA protein ≥75%)”. The IC50 in the assay on pAKT in BT474 cells (Compounds 10-999) is less than 0.1 µM.

As to `C=CC(=O)N1CCn2nc(-c3nc(-c4cnc5c(c4)CN(CCOC)CC5(F)F)c4ccsc4c3-c3c(F)cc(F)cc3OCCOC)cc2C1C` (centres unmarked) [Compound 1242], the “% of modification” value in assay [1] (setting [3]) is “A (percent of modification of PIK3CA protein ≥75%)”. For the same molecule, the IC50 with pAKT in BT474 cells (Compounds 1000-1279) is less than 0.1 µM.

With `C=CC(=O)N1CCn2nc(-c3nc(-c4ccc5c(c4)CCNC5)c4ccsc4c3-c3ccc(F)cc3OCCOC)nc2C1` [Compound 105, 1-[2-[7-[4-fluoro-2-(2-methoxyethoxy)phenyl]-4-(1,2,3,4-tetrahydroisoquinolin-6-yl)thieno[3,2-c]pyridin-6-yl]-6,8-dihydro-5H-[1,2,4]triazolo[1,5-a]pyrazin-7-yl]prop-2-en-1-one], the “% of modification” value in assay [1] (setting [2]) was “A (percent of modification of PIK3CA protein ≥75%)”. The IC50 with pAKT in BT474 cells (setting [4]) was less than 0.1 µM.

On to `C=CC(=O)N1CC(n2cc(-c3nc(-c4ccc5c(c4)CCNC5)c4ccsc4c3-c3cccc(=O)n3CCOC)cn2)C1` [Compound 170], for which the “% of modification” value in assay [1] (setting [2]) is “D (percent of modification <25%)”. Besides, the IC50 in the assay on pAKT in BT474 cells (Compounds 10-999) is 1 to 3 µM.

As for `C=CC(=O)N1Cc2cc(-c3nc(-c4cnn(C)c4)c4ccsc4c3-c3c(F)cc(F)cc3OCCOC)nn2C[C@H]1C` [Compound 577], the “% of modification” value in assay [1] (setting [2]) is “A (percent of modification of PIK3CA protein ≥75%)”. In addition, in the assay on pAKT in BT474 cells (Compounds 10-999), the IC50 is less than 0.1 µM.

As to `C=CC(=O)N1CCn2nc(-c3nc(-c4ccc5cnncc5c4)c4ccsc4c3-c3c(F)cc(F)cc3OCCO)cc2C1C` (centres unmarked) [Compound 909], in assay [1] (setting [3]), the “% of modification” value was “A (percent of modification of PIK3CA protein ≥75%)”. For the same molecule, in the assay with pAKT in BT474 cells (Compounds 10-999), the IC50 is less than 0.1 µM.

In the case of `C=C(F)C(=O)N1CCn2nc(-c3nc(-c4ccc(=O)n(C)c4)c4ccsc4c3-c3ccc(F)cc3OC(C)C)nc2C1` [Compound 267], in assay [1] (setting [2]), the “% of modification” value is on record as “A (percent of modification of PIK3CA protein ≥75%)”. Besides, in the assay with pAKT in BT474 cells (Compounds 10-999), the IC50 fell in the range of 0.1 to 1 µM.

On to `C=CC(=O)N1CCn2nc(-c3nc(-c4cnn(C)c4)c4ccsc4c3-c3ccc(F)cc3OC(C)C)cc2C1` [Compound 200, 1-[2-[7-(4-fluoro-2-isopropoxy-phenyl)-4-(1-methylpyrazol-4-yl)thieno[3,2-c]pyridin-6-yl]-6,7-dihydro-4H-pyrazolo[1,5-a]pyrazin-5-yl]prop-2-en-1-one], for which the “% of modification” value in assay [1] (setting [2]) is reported as “A (percent of modification of PIK3CA protein ≥75%)”. For the same molecule, in the assay with pAKT in BT474 cells (setting [4]), the half-inhibitory concentration (IC50) is less than 0.1 µM.
